Assay [1] has as its target T1, human NTSR1 (Homo sapiens, UniProt P30989).
T1 construct: host or cells: HEK-293 cells (membrane preparations)
Put plainly: radioligand-receptor binding assay, [125I] labeled neurotensin (Eurofins Panlabs). The method in brief: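 Membranes from HEK-293 cells expressing human NTSR1 incubated 45 min with 0.02 nM [125I]neurotensin and conjugate in 6-point 3-fold dilutions from 100 or 10 nM; bound radioactivity counted after filtration. IC50 by nonlinear regression, converted to Ki via Cheng–Prusoff using historical ligand Kd.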

The subject of assay [2] is HT-29 cells (human colon cancer cells). Put plainly: inhibition of HT29 cell proliferation (Cell Titer Glo 2.0). The format is cell-based. The settings on record: 72 h. As for the experimental part: Conjugates were assessed in an in vitro assay evaluating inhibition of cell proliferation. HT-29 cells (human colon cancer cells) were seeded in white walled 96-well plates at 10,000 cells per well in 100 μl McCoy's 5a (Invitrogen) media supplemented with 10% Fetal Bovine Serum (Invitrogen). After allowing cells to settle overnight, 5 μl of 20× test article was added to each well in replicate and incubated for 72 h. 72 hours after addition of compound, plates were removed from incubator and allowed to cool to room temperature. 50 μl of Cell Titer Glo 2.0 (Promega) was added to each well, incubated for 15 minutes, and plates were read on Glomax luminometer (Promega) using the Cell Titer Glo protocol. Raw luminometer readings for each plate were transformed by dividing the experimental well into the mean of untreated control wells. This is reported as ratio of untreated, and is plotted with Prism 6 software (Graph Pad) and fitted with a 4-parameter, variable slope curve.
Conjugates are assessed for receptor-dependent cytotoxicity by the difference between an NTSR1-targeting conjugate, and the corresponding conjugate with the same linker moiety and active agent where the NTSR1-targeting domain has been scrambled.

The test system of assay [3] is SW48 (human colon cancer cells). Put plainly: inhibition of SW48 cell proliferation (CellTiter Glo). Particulars: 72 hrs, read-out: SW-48 proliferation IC50. Type of assay: cell-based. The method, boiled down: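 Cells plated at 5,000/well and grown 24 hrs were exposed to conjugates for 72 hrs at 37° C, 5% CO2, in a ten-point three-fold series starting at 10 μM; vehicle was 0.01% DMSO. Proliferation was read by CellTiter Glo. % inhibition was taken relative to vehicle, with IC50 from four-parameter nonlinear regression.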

Where [4] appears, read: [125I] neurotensin 0.02 nM, membranes from NTSR1 expressing HEK-293 cells, 45 minute incubation, Cheng and Prusoff, read-out: NTSR1 binding Ki.

Like-named read-outs stand apart in the source and are kept apart here. Square brackets hold non-standard residues; d marks the D form. Peptide text beside a SMILES is read from it. * marks the point of attachment. MMAE(N-CO2CH2CH2S) = CC[C@H](C)[C@@H]([C@@H](CC(=O)N1CCC[C@H]1[C@H](OC)[C@@H](C)C(=O)N[C@H](C)[C@@H](O)c1ccccc1)OC)N(C)C(=O)[C@@H](NC(=O)[C@H](C(C)C)N(C)C(=O)OCCS*)C(C)C; Pen = CC(C)(S)[C@H](N)C(=O)O; Tle = CC(C)(C)[C@H](N)C(=O)O

T1 sequence (P30989 whole entry): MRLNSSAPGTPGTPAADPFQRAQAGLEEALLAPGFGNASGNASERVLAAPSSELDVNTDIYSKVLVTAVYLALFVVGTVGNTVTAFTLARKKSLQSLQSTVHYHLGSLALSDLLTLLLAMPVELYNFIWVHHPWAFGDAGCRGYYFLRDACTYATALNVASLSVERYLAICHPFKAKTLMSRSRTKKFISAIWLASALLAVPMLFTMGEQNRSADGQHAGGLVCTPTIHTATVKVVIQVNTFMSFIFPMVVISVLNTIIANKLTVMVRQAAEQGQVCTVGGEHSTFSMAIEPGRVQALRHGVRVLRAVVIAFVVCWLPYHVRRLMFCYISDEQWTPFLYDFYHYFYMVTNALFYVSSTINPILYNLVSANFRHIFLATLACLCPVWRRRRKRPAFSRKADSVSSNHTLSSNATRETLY

As for `COc1cc2cc(c1Cl)N(C)C(=O)C[C@H](OC(=O)[C@H](C)N(C)C(=O)CCSC1CC(=O)N(CCCNC(=O)CNC(=O)[C@H](CC(C)C)NC(=O)[C@H](Cc3ccccc3)NC(=O)CNC(=O)CCC(=O)NCCCC[C@H](NC(C)=O)C(=O)N3CCC[C@H]3C(=O)N[C@@H](CC(C)C)C(=O)N3CCC[C@H]3C(=O)N(C)[C@@H](CCCNC(=N)N)C(=O)N[C@H](C(=O)N[C@@H](CCCNC(=N)N)C(=O)N[C@@H](Cc3ccc(O)cc3)C(=O)O)C(C)(C)C)C1=O)[C@]1(C)O[C@H]1[C@H](C)[C@@H]1C[C@@](O)(NC(=O)O1)[C@H](OC)/C=C/C=C(\C)C2` (stereo partly drawn) [Compound 79], the Ki (usually a measure of affinity in units of concentration, obtained from inhibition or displacement) in assay [1] (setting [4]) was 980 nM. Moreover, the IC50 was 97 nM in assay [2] (NTSR1 scrambled compound) and 76 nM in assay [3] (NTSR1 scrambled compound).
In the case of `CC[C@H](C)[C@@H]([C@@H](CC(=O)N1CCC[C@H]1[C@H](OC)[C@@H](C)C(=O)N[C@H](C)[C@@H](O)c1ccccc1)OC)N(C)C(=O)[C@@H](NC(=O)[C@H](C(C)C)N(C)C(=O)OCCSSC(C)(C)[C@H](NC(C)=O)C(=O)N1CCC[C@H]1C(=O)N[C@@H](CCCNC(=N)N)C(=O)N[C@@H](CCCNC(=N)N)C(=O)N1CCC[C@H]1C(=O)N[C@@H](Cc1ccc(O)cc1)C(=O)N[C@H](C(=O)N[C@@H](CC(C)C)C(=O)O)C(C)(C)C)C(C)C` [Compound 55] (Ac-[Pen](MMAE(N-CO2CH2CH2S))PRRPY[Tle]L-OH), in assay [1] (setting [4]), the Ki stood at 1.53 nM. Further, the results for the IC50 in assay [2] (NTSR1 targeted compound) and in assay [3] (NTSR1 targeted compound) were 1.9 nM and 13 nM, respectively.
Take `CC[C@H](C)[C@@H]([C@@H](CC(=O)N1CCC[C@H]1[C@H](OC)[C@@H](C)C(=O)N[C@H](C)[C@@H](O)c1ccccc1)OC)N(C)C(=O)[C@@H](NC(=O)[C@H](C(C)C)N(C)C(=O)OCCSSCCC(=O)NCCCC[C@H](NC(C)=O)C(=O)N1CCC[C@H]1C(=O)N(C)[C@@H](CCCNC(=N)N)C(=O)N[C@@H](CCCNC(=N)N)C(=O)N1CCC[C@H]1C(=O)N[C@@H](Cc1ccc(O)cc1)C(=O)N[C@H](C(=O)N[C@@H](CC(C)C)C(=O)O)C(C)(C)C)C(C)C` [Compound 56]: in assay [1] (setting [4]), the Ki turned out to be 1.15 nM. Also, the IC50 in assay [2] (NTSR1 targeted compound) is 0.42 nM; in assay [3] (NTSR1 targeted compound) it was 4.3 nM.
Consider `CC[C@H](C)[C@@H]([C@@H](CC(=O)N1CCC[C@H]1[C@H](OC)[C@@H](C)C(=O)N[C@H](C)[C@@H](O)c1ccccc1)OC)N(C)C(=O)[C@@H](NC(=O)[C@H](C(C)C)N(C)C(=O)OCc1ccc(NC(=O)[C@H](CCCNC(N)=O)NC(=O)[C@@H](NC(=O)CCCCCN2C(=O)CC(SCCC(=O)NCCCC[C@H](NC(C)=O)C(=O)N3CCC[C@H]3C(=O)N(C)[C@@H](CCCNC(=N)N)C(=O)N[C@@H](CCCNC(=N)N)C(=O)N3CCC[C@H]3C(=O)N[C@@H](Cc3ccc(O)cc3)C(=O)N[C@H](C(=O)N[C@@H](CC(C)C)C(=O)O)C(C)(C)C)C2=O)C(C)C)cc1)C(C)C` (stereo partly drawn) [Compound 54], for which the affinity in assay [1], expressed as Ki, was 1.45 nM. Further, the figures for the IC50 in assay [2] (NTSR1 targeted compound) and in assay [3] (NTSR1 targeted compound) were 6.2 nM and 22 nM, respectively.
